These results are taken from patent publication US11014912B2, “Cyanopyrrolidine derivatives with activity as inhibitors of USP30” (MISSION THERAPEUTICS LIMITED, priority 2016, dated 2021).

In the assay the target is USP30 (Homo sapiens (Human), UniProt Q70CQ3). The assay is described as follows: USP30 biochemical IC50 assay. The conditions noted are these: fluorescence polarisation, TAMRA labelled peptide linked to ubiquitin substrate; enzyme and compound incubated 30 min at room temp; read after 2 h; read-out: IC50 range. The procedure: USP30 Biochemical IC50 Assay
Sequence of USP30 (Q70CQ3 57-517): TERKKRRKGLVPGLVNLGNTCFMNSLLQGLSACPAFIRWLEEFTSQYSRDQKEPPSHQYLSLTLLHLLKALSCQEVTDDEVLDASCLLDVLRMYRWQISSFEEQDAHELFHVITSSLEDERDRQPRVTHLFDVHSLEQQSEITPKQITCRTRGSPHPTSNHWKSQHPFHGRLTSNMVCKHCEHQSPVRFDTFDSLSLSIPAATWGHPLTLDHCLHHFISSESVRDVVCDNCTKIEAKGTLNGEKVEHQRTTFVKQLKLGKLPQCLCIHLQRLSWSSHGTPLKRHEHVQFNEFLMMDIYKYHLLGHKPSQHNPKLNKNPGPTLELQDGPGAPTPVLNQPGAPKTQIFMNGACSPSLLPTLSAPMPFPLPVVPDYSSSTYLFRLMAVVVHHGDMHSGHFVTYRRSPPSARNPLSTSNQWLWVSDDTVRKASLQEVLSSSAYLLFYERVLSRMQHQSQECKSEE
Dilution plates were prepared at 21 times the final concentration (2100 μM for a final concentration of 100 μM) in 50% DMSO in a 96-well polypropylene V-bottom plate (Greiner #651201). A typical 8-point dilution series would be 100, 30, 10, 3, 1, 0.3, 0.1, 0.03 μM final. Reactions were performed in duplicate in black 384 well plates (small volume, Greiner 784076) in a final reaction volume of 21 μl. Either 1 μl of 50% DMSO or diluted compound was added to the plate. USP30 was diluted in reaction buffer (40 mM Tris, pH 7.5, 0.005% Tween 20, 0.5 mg/ml BSA, 5 mM beta-mercaptoethanol) to the equivalent of 0.05 μl/well and 10 μl of diluted USP30 was added to the compound. Enzyme and compound were incubated for 30 min at room temp. Reactions were initiated by the addition of 50 nM of TAMRA labelled peptide linked to ubiquitin via an iso-peptide bond as fluorescence polarisation substrate. Reactions were read immediately after addition of substrate and following a 2 h incubation at room temperature. Readings were performed on a Pherastar Plus (BMG Labtech). A Excitation 540 nm; A Emission 590 nm.
Consider `N#Cc1ccc(C2CN(C(=O)C[C@@H]3CCN(C#N)C3)C2)cc1` [Example 52, (S)-3-(2-(3-(4-cyanophenyl)azetidin-1-yl)-2-oxoethyl)pyrrolidine-1-carbonitrile], for which the IC50 was in the range of 100 to 1000 nM.

Take `C[C@@H](C(=O)Nc1cc(-c2cccc(Cl)c2)no1)[C@@H]1CCN(C#N)C1` [Example 53, (R)-N-(3-(3-chlorophenyl)isoxazol-5-yl)-2-((S)-1-cyanopyrrolidin-3-yl)propanamide]: the IC50 fell in the range of 10 to 100 nM.

`N#CN1CC[C@H](CC(=O)Nc2cc(-c3cccc(OC(F)(F)F)c3)no2)C1` [Example 54, (R)-2-(1-cyanopyrrolidin-3-yl)-N-(3-(3-(trifluoromethoxy)phenyl)isoxazol-5-yl)acetamide]: the concentration for half-maximal inhibition (IC50) lay within 1 to 10 nM.

On to `N#Cc1cccc(-c2cc(NC(=O)C[C@H]3CCN(C#N)C3)no2)c1` [Example 55, (R)-N-(5-(3-cyanophenyl)isoxazol-3-yl)-2-(1-cyanopyrrolidin-3-yl)acetamide], for which the IC50 lay in the range of 1 to 10 nM.

`N#Cc1cccc(C2CN(C(=O)C[C@@H]3CCN(C#N)C3)C2)c1` [Example 56, (S)-3-(2-(3-(3-cyanophenyl)azetidin-1-yl)-2-oxoethyl)pyrrolidine-1-carbonitrile]: the IC50 lay in the range of 100 to 1000 nM.

With `N#Cc1ccc(C2CN(C(=O)C[C@@H]3CCN(C#N)C3)C2)nc1` [Example 57, (S)-6-(1-(2-(1-cyanopyrrolidin-3-yl)acetyl)azetidin-3-yl)nicotinonitrile], the concentration for half-maximal inhibition (IC50) fell in the range of 100 to 1000 nM.

Turning to `N#CN1CCC(CC(=O)N2CC(c3ccc(O)cc3)C2)C1` (stereo not drawn) [Example 58, 3-(2-(3-(4-hydroxyphenyl)azetidin-1-yl)-2-oxoethyl)pyrrolidine-1-carbonitrile], the half-inhibitory concentration (IC50) lay in the range of 100 to 1000 nM.

For `Cc1cc(C2CN(C(=O)C[C@@H]3CCN(C#N)C3)C2)ccc1C#N` [Example 59, (S)-3-(2-(3-(4-cyano-3-methylphenyl)azetidin-1-yl)-2-oxoethyl)pyrrolidine-1-carbonitrile], the IC50 was in the range of 10 to 100 nM.

Turning to `CN(C)C(=O)c1ccc(C2CN(C(=O)C[C@@H]3CCN(C#N)C3)C2)cc1` [Example 60, (S)-4-(1-(2-(1-cyanopyrrolidin-3-yl)acetyl)azetidin-3-yl)-N,N-dimethylbenzamide], the 50% inhibitory concentration (IC50) lay in the range of 100 to 1000 nM.

On to `N#CN1CC[C@H](CC(=O)Nc2nnc(-c3ccccc3)s2)C1` [Example 63, (R)-2-(1-cyanopyrrolidin-3-yl)-N-(5-phenyl-1,3,4-thiadiazol-2-yl)acetamide], for which the IC50 fell in the range of 1000 to 10000 nM.

Consider `N#CN1CC[C@@H](CC(=O)Nc2nnc(-c3ccccc3)s2)C1` [Example 64, (S)-2-(1-cyanopyrrolidin-3-yl)-N-(5-phenyl-1,3,4-thiadiazol-2-yl)acetamide], for which the IC50 is 100 to 1000 nM.

With `CC(C)Oc1ccc(C2CN(C(=O)C[C@@H]3CCN(C#N)C3)C2)nc1` [Example 65, (S)-3-(2-(3-(5-isopropoxypyridin-2-yl)azetidin-1-yl)-2-oxoethyl)pyrrolidine-1-carbonitrile], the IC50 is 100 to 1000 nM.

Regarding `COCCOc1ccc(C2CN(C(=O)C[C@@H]3CCN(C#N)C3)C2)cc1` [Example 66, (S)-3-(2-(3-(4-(2-methoxyethoxy)phenyl)azetidin-1-yl)-2-oxoethyl)pyrrolidine-1-carbonitrile], the IC50 fell in the range of 1000 to 10000 nM.

With `COc1ccc(C2CN(C(=O)C[C@@H]3CCN(C#N)C3)C2)cc1-c1cnn(C)c1` [Example 67, (S)-3-(2-(3-(4-methoxy-3-(1-methyl-1H-pyrazol-4-yl)phenyl)azetidin-1-yl)-2-oxoethyl)pyrrolidine-1-carbonitrile], the concentration for half-maximal inhibition (IC50) was in the range of 10 to 100 nM.

Turning to `COc1cccc(C2CN(C(=O)C[C@@H]3CCN(C#N)C3)C2)c1F` [Example 68, (S)-3-(2-(3-(2-fluoro-3-methoxyphenyl)azetidin-1-yl)-2-oxoethyl)pyrrolidine-1-carbonitrile], the half-maximal inhibitory concentration (IC50) lay within 10 to 100 nM.
